These results are taken from patent US20150111764A1, “POLYMERIZED MICROARRAYS” (New York University, priority 2013, published 2015).

The target of assay [1] is T1, Rhodamine-labeled PNA (galactose-specific lectin) (Arachis hypogaea, UniProt P02872).
T1 sequence (P02872 24-273): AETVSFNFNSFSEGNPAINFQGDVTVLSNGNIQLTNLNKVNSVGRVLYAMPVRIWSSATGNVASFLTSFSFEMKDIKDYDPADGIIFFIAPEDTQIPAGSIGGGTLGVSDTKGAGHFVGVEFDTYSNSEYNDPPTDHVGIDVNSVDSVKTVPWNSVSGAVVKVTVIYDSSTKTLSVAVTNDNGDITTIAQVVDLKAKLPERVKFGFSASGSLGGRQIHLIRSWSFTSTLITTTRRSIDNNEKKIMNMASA
Briefly: Control: glycan arrays exposed to Rhodamine-labeled PNA, fluorescence. Format: binding. The conditions noted are these: PNA 1.5×10^−5 M, 5 h, washed with phosphate buffer/Tween 20. From the text: Control Experiments. […] This experiment supports the conclusion that fluorescence in the Cy3-labelled ConA exposed arrays of compound 3 and compound 4 arise from ConA-glucose binding (FIG. 27).

The target of assay [2] is Concanavalin A (ConA) (Canavalia ensiformis, UniProt P02866).
From the text: Fluorescence intensity profiles of the array were obtained from a Nikon Eclipse Ti fluorescence microscope (λex=532-587 nm, λobs=608-683 nm), and extracted by NIS-elements software (Nikon Instruments, Inc.). Exposure times ranged from 1-4 s, depending on the brightness of the arrays. To compare data taken with different exposure times, the normalized fluorescence was obtained by dividing the maximum fluorescence by the background fluorescence. It is possible that the ratio of signal-to-background can vary with exposure time, so to test the effect of exposure time on the normalized fluorescence of features on the microarray, fluorescence images of a surface patterned with compound 4 and bound to Cy3-modified ConA were taken at different exposure time.
Preparation of Carbohydrate arrays by PPL-induced Thiol-ene and Thiol-acrylate reaction. To prepare the pen arrays for inking, they were exposed to O2 plasma (Harrick PDC-001, 30 s, medium power) to render the surfaces of the pen-arrays hydrophilic. […]
Arrays of compound 3 and compound 4 were prepared by the thiol-methacrylate and thiol-ene reactions, respectively, as well as α-mannosides immobilized by the thiol-ene and Cuaac reaction. Binding of Concanavalin A (ConA) to these arrays was measured by fluorescence microscopy to determine how the mutivalency of the resulting glycans affects binding. […]

Regarding α-glucomethacrylate [compound 3], the “fluorescence after exposure to Rhodamine-labeled PNA” value in assay [1] is recorded as “no fluorescence was observed”; in assay [1] (listed as Compound 3), “no visible fluorescence was observed”. In addition, the “lowest ConA concentration detected by the array” value in assay [2] (ConA concentration varied systematically, thiol-acrylate brush polymer arrays) is 0.2 µM. Moreover, the “normalized fluorescence of array after ConA binding” value in assay [2] (Cy3-labelled ConA 0.5 mg/mL, 4 h at 4° C., maximum fluorescence divided by background fluorescence) turned out to be 7.1±0.2.
